Values after ≈ are worked out from the molar mass of the structure shown.
Legend:
[1] = system: MRSA clinical isolate SAU.492; experiment: microbe, parasite or virus in culture; format: cell-based, S. aureus; settings: Staphylococcus aureus, read-out: MIC
Description: (§1) Susceptibility testing was performed in triplicate using the microdilution broth method as outlined by the Clinical and Laboratory Standards Institute CLSI^52. MH broth was used.

[2] = system: MRSA clinical isolate SAU.710; experiment: microbe, parasite or virus in culture; format: cell-based, S. aureus; settings: Staphylococcus aureus, read-out: MIC
Description: as §1

[3] = system: MRSA clinical isolate SAU.708; experiment: microbe, parasite or virus in culture; format: cell-based, S. aureus; settings: Staphylococcus aureus, read-out: MIC
Description: as §1

[4] = system: MRSA clinical isolate SAU.493; experiment: microbe, parasite or virus in culture; format: cell-based, S. aureus; settings: Staphylococcus aureus, read-out: MIC
Description: as §1

[5] = system: MRSA clinical isolate SAU.709; experiment: microbe, parasite or virus in culture; format: cell-based, S. aureus; settings: Staphylococcus aureus, read-out: MIC
Description: as §1

[6] = system: MRSA clinical isolate SAU.489; experiment: microbe, parasite or virus in culture; format: cell-based, S. aureus; settings: Staphylococcus aureus, read-out: MIC
Description: as §1

[7] = system: MRSA clinical isolate SAU.494; experiment: microbe, parasite or virus in culture; format: cell-based, S. aureus; settings: Staphylococcus aureus, read-out: MIC
Description: as §1

[8] = system: MRSA clinical isolate SAU.491; experiment: microbe, parasite or virus in culture; format: cell-based, S. aureus; settings: Staphylococcus aureus, read-out: MIC
Description: as §1

[9] = system: MRSA clinical isolate SAU.495; experiment: microbe, parasite or virus in culture; format: cell-based, S. aureus; settings: Staphylococcus aureus, read-out: MIC
Description: as §1

[10] = system: MRSA clinical isolate SAU.496; experiment: microbe, parasite or virus in culture; format: cell-based, S. aureus; settings: Staphylococcus aureus, read-out: MIC
Description: as §1

physchem [11] = settings: pH 7.4 PBS; three replicates ± SEM
Description: Enough PBS was added to make a 1 mg/mL solution. Compounds were then assessed by LC-MS and compared to a calibration curve to determine the solubility. […] Data shown is from three independent replicates±SEM. […] Between DMSO additions, the vial was vortexed and sonicated.
The compound was vortexed for ˜30 seconds before being placed into a bath sonicator (Cole Parmer, ultrasonic cleaner) for 1 h. […] The tubes were vortexed again for 30 s before being centrifuged at maximum speed (13,000×g) for 10 minutes. The supernatant was then filtered through a 0.22 μm syringe filter (Millipore Millex MP). […] Three independent replicates of each compound were performed. A calibration curve for each compound was generated from 1-400 μM by dissolving the compound in DMSO and making dilutions of the stock in DMSO. […] The concentration of the samples was calculated based on the calibration curves.

[12] = system: high level CIP resistant strains of S. aureus ATCC 29213 (S84L GyrA); experiment: microbe, parasite or virus in culture; format: cell-based; settings: Staphylococcus aureus, ATCC29213
[13] = system: VRE clinical isolate U563; experiment: organism not typed; format: cell-based, E. faecium
Description: (§2) QRDR mutations were determined as described in the text using primers (primer sequences can be found in Table 7).
as §1

[14] = system: VRE clinical isolate S226; experiment: organism not typed; format: cell-based, E. faecium
Description: as §2, §1

[15] = system: VRE clinical isolate C27282; experiment: organism not typed; format: cell-based, E. faecium
Description: as §2, §1

[16] = system: VRE clinical isolate S235; experiment: organism not typed; format: cell-based, E. faecium
Description: as §2, §1

VRE clinical isolate S34 = experiment: organism not typed; format: cell-based, E. faecium
Description: as §2, §1

VRE clinical isolate U63 = experiment: organism not typed; format: cell-based, E. faecium
Description: as §2, §1

[17] = system: VRE clinical isolate U464; experiment: organism not typed; format: cell-based, E. faecium
Description: as §2, §1

[18] = system: VRE clinical isolate C21190; experiment: organism not typed; format: cell-based, E. faecium
Description: as §2, §1

VRE clinical isolate S51 = experiment: organism not typed; format: cell-based, E. faecium
Description: as §2, §1

[19] = system: VRE clinical isolate U275; experiment: organism not typed; format: cell-based, E. faecium
Description: as §2, §1

[20] = system: VRE clinical isolate U503; experiment: organism not typed; format: cell-based, E. faecium
Description: as §2, §1

WT E. coli DNA gyrase = target: T1, WT E. coli DNA gyrase (Escherichia coli, UniProt P0AES4); format: biochemical; settings: in words
T1 construct: His tag (pTrcHisA vector, purified on Ni-NTA); made in house; host or cells: E. coli One Shot BL21 Star (DE3)

A. baumannii KB304 = experiment: MIC, microdilution broth; format: cell-based; settings: Acinetobacter baumannii
Description: E. coli MG1655 and the ΔAcrB strain were obtained from Prof. Cari Vanderpool at UIUC.
as §1

physchem [21] = settings: organic solvent or mixture, thermodynamic from solid
[22] = system: VRE clinical isolate C28036; experiment: microbe, parasite or virus in culture; format: cell-based, Ent. Spp.; settings: Enterococcus
Description: as §2, §1

VRE clinical isolates = experiment: Panel of VRE clinical isolates (FIG. 2B); format: cell-based, Enterococcus; settings: n=22, in words
MRSA clinical isolates = experiment: Panel of MRSA clinical isolates (FIG. 2A); format: cell-based, S. aureus; settings: n=21, in words
in vivo = settings: female, C57BL/6, mouse, po
Description: As a prelude to exploring in vivo efficacy, the toxicity and pharmacokinetic profile of DNM and key derivatives was evaluated.
The animal studies (PK, in vivo toxicity and in vivo efficacy) were carried out in strict accordance with the recommendations in the Guide for the Care and Use of Laboratory Animals of the National Institutes of Health. […] In these studies, 10-12 week old female C57BL/6 mice purchased from Charles River were used. DNM, DNM-2, and DNM-3 were formulated as slurries at 8.3 mg mL^−1 in 25% Cremophor RH40/water (v/v). Before beginning the pharmacokinetic assessment, mice were first tested for their ability to tolerate the DNM, DNM-2, and DNM-3 at 50 mg kg^−1 (p.o.). […] . At specified time points, mice were sacrificed and blood was collected, centrifuged, and the serum was frozen at −80° C. until analysis. The proteins in a 50 μL aliquot of serum were precipitated by the addition of 50 μL of acetonitrile and the sample was centrifuged to remove the proteins. Serum concentrations of DNM, DNM-2, and DNM-3 were determined by HPLC. PK parameters were determined using GraphPad Prism Version 5.00 for Windows.

T1 sequence (P0AES4 whole entry): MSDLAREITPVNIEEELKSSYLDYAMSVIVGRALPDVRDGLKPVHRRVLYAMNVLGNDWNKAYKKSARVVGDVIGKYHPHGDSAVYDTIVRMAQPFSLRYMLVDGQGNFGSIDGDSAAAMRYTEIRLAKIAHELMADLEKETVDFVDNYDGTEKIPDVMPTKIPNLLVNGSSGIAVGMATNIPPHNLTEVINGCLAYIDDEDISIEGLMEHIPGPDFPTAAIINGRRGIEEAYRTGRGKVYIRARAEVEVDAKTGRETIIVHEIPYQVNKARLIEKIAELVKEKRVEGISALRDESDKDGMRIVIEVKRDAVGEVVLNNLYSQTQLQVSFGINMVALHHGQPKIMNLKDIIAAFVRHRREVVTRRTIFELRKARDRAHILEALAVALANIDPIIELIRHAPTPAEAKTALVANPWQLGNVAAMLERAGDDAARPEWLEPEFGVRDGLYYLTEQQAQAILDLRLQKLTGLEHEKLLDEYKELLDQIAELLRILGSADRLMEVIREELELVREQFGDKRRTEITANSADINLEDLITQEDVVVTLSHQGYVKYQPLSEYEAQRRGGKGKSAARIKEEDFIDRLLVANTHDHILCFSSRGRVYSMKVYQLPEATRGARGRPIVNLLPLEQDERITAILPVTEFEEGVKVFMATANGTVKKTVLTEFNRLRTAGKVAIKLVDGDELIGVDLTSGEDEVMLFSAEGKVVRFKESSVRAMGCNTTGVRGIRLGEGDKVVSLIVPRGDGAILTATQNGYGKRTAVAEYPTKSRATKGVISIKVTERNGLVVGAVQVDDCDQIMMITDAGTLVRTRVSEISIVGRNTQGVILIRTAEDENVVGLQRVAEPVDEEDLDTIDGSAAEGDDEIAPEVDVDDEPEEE

SMILES: Cc1cc(=O)n(C)c2c3c4c(cc12)c(C)cc(=O)n4CO3 [DNM, deoxynybomycin]
- MIC [1]: 0.063 µg/mL (≈ 0.223 µM)
- MIC [2]: 0.031 µg/mL (≈ 0.11 µM)
- MIC [3]: 0.063 µg/mL (≈ 0.223 µM)
- MIC [4]: 0.063 µg/mL (≈ 0.223 µM)
- MIC [5]: 0.063 µg/mL (≈ 0.223 µM)
- MIC [6]: 0.031 µg/mL (≈ 0.11 µM)
- MIC [7]: 0.063 µg/mL (≈ 0.223 µM)
- MIC [8]: 0.125 µg/mL (≈ 0.443 µM)
- MIC [9]: 0.063 µg/mL (≈ 0.223 µM)
- MIC [10]: 0.063 µg/mL (≈ 0.223 µM)
- Solubility in pH 7.4 PBS (physchem [11]): 9 μM
- MIC [12]: 0.03 to 0.06 µg/mL (≈ 0.106 to 0.213 µM)
- MIC [13]: > 1 µg/mL
- MIC [14]: 0.25 µg/mL (≈ 0.886 µM)
- MIC [15]: > 1 µg/mL
- MIC [16]: 0.125 µg/mL (≈ 0.443 µM)
- MIC (VRE clinical isolate S34): 1 µg/mL (≈ 3.54 µM)
- MIC (VRE clinical isolate U63): 1 µg/mL (≈ 3.54 µM)
- MIC [17]: 1 µg/mL (≈ 3.54 µM)
- MIC [18]: > 1 µg/mL
- MIC (VRE clinical isolate S51): 0.25 µg/mL (≈ 0.886 µM)
- MIC [19]: 1 µg/mL (≈ 3.54 µM)
- MIC [20]: > 1 µg/mL
- inhibition of WT DNA gyrase (WT E. coli DNA gyrase): poor inhibitors of WT DNA gyrase
- MIC (A. baumannii KB304): > 4 µg/mL
- solubility (physchem [21]): 200 µM (≈ 56.5 µg/mL)
- MIC [22]: 0.25 µg/mL (≈ 0.886 µM)
- sensitivity of VRE clinical isolates (VRE clinical isolates): sensitive
- sensitivity of MRSA clinical isolates (MRSA clinical isolates): sensitive
- MTD (in vivo): > 50 mg/kg

SMILES: CCn1c(=O)cc(C)c2cc3c(C)cc(=O)n4c3c(c21)OC4 [DNM-2]
- MIC [1]: 0.125 µg/mL (≈ 0.422 µM)
- MIC [2]: 0.063 µg/mL (≈ 0.213 µM)
- MIC [3]: 0.125 µg/mL (≈ 0.422 µM)
- MIC [4]: 0.125 µg/mL (≈ 0.422 µM)
- MIC [5]: 0.125 µg/mL (≈ 0.422 µM)
- MIC [6]: 0.125 µg/mL (≈ 0.422 µM)
- MIC [7]: 0.125 µg/mL (≈ 0.422 µM)
- MIC [8]: 0.125 µg/mL (≈ 0.422 µM)
- MIC [9]: 0.125 µg/mL (≈ 0.422 µM)
- MIC [10]: 0.125 µg/mL (≈ 0.422 µM)
- Solubility in pH 7.4 PBS (physchem [11]): 121 μM
- MIC [12]: 0.06 to 0.12 µg/mL (≈ 0.202 to 0.405 µM)
- MIC [13]: 2 µg/mL (≈ 6.75 µM)
- MIC [14]: 0.5 µg/mL (≈ 1.69 µM)
- MIC [15]: 4 µg/mL (≈ 13.5 µM)
- MIC [16]: 0.5 µg/mL (≈ 1.69 µM)
- MIC (VRE clinical isolate S34): 1 µg/mL (≈ 3.37 µM)
- MIC (VRE clinical isolate U63): 4 µg/mL (≈ 13.5 µM)
- MIC [17]: 2 µg/mL (≈ 6.75 µM)
- MIC [18]: 8 µg/mL (≈ 27 µM)
- MIC (VRE clinical isolate S51): 0.5 µg/mL (≈ 1.69 µM)
- MIC [19]: 2 µg/mL (≈ 6.75 µM)
- MIC [20]: 4 µg/mL (≈ 13.5 µM)
- inhibition of WT DNA gyrase (WT E. coli DNA gyrase): poor inhibitors of WT DNA gyrase
- MIC (A. baumannii KB304): > 24 µg/mL
- solubility (physchem [21]): 4000 µM (≈ 1190 µg/mL)
- MIC [22]: 0.5 µg/mL (≈ 1.69 µM)
- sensitivity of VRE clinical isolates (VRE clinical isolates): sensitive
- sensitivity of MRSA clinical isolates (MRSA clinical isolates): sensitive
- MTD (in vivo): > 50 mg/kg

— patent US9920069B2, “Compounds for treatment of fluoroquinolone-resistant bacteria” (The Board of Trustees of the University of Illinois, priority 2014, dated 2018)
